Laboratory results from US20160030416A1, “METHODS OF TREATING B2-BRADYKININ RECEPTOR MEDIATED ANGIOEDEMA” (SHIRE HUMAN GENETIC THERAPIES, INC., priority 2013, published 2016).
≈ marks a conversion by molar mass, not a printed value.

Experiments:
[1] = Pharmacokinetics, single oral gavage, 2 formulations, Wistar and Sprague-Dawley rats; type: in vivo; details: for AUC(0-inf) / AUC(0-t) / Cmax / Tmax / half-life: rat, plasma, po
Protocol: Pharmacokinetics and gender differences were evaluated with 2 different formulations of CFMQ (HGT3711) in 2 different types of rat models. These attributes were investigated in a single oral gavage study. Male and female Wistar rats (n=3 per dose group) received CFMQ (HGT3711) at 15, […], and or 150 mg/kg. […] The two vehicle formulations evaluated were formulation 1: 10% N-methyl pyrrolidone (NMP): 10% Ethanol: 30% polyethylene glycol (PEG400): 50% […] (lauroyl polyoxylglycerides); and formulation 2: 10% NMP: 0% PEG400: 20% CREMOPHOR EL (Macrogolglycerol ricinoleate): 25% […] 44/14 (lauroyl polyoxylglycerides): 25% CAPROYOL 90 (Propylene Glycol Caprylate).
Blood samples were taken via cardiac puncture prior to administration and at 0.25 (15 min), 0.50 (30 min), 1, 2, 4, 8 and 24 hours post dose. Plasma concentrations of CFMQ (HGT3711) were determined by LC-MS/MS and nominal dosing concentrations were used in all calculations.

[2] = Physicochemical properties of CFMQ
Protocol: The physicochemical properties of 1-((4-Chloro-3-(((4-(4-fluoro-1H-pyrazol-1-yl)-2-methylquinolin-8-yl)oxy)methyl)-6-methylpyridin-2-yl)methyl)-2-oxo-1,2-dihydropyridine-3-carbonitrile (CFMQ) were determined using standard methods. CFMQ was a free base with a molecular weight of 514.9 Da and was a nonhygroscopic, crystalline powder with a melting point of about 214° C.

[3] = target: T1, V1a (h) (Homo sapiens, UniProt P37288); test: Off-target receptor binding: V1a
T1 construct: expressed in transfected cells; host or cells: CHO or HEK 293 (not assigned per receptor)
T1 sequence (P37288 whole entry): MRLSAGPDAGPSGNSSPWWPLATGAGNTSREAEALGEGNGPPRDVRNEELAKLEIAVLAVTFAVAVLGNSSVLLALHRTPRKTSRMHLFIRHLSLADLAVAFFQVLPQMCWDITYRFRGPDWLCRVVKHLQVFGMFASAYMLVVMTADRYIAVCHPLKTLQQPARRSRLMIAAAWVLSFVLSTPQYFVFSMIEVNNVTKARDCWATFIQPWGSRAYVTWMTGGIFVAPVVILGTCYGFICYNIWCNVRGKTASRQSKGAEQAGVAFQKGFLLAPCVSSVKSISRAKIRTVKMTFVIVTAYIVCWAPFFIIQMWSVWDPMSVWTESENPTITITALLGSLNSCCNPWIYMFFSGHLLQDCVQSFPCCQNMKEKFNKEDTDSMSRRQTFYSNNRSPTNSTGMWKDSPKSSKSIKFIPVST
Protocol: To determine the affinity to the B2-bradykinin receptor, CFMQ was compared to a diverse set of receptors and reference agents in an in vitro assay using cells from rat heart, urinary bladder, cerebral cortex, as well as human recombinant cells (CHO and HEK 293) and other cell lines. Each assay included a ligand at a specific concentration (concentration ranging from 0.007-10 nM), in addition to a non-specific ligand (concentration ranging from […]) for incubation periods ranging from 15 minutes to 6 hours at 4°-37° C. The specific binding to the receptors was defined as the difference between the total binding and the nonspecific binding, determined in the presence of an excess of unlabeled CFMQ. The concentration causing a half-maximal inhibition of control specific binding (IC50 values) and inhibition constants (Ki) were determined, and each reference compound was within the accepted limits of the historic average (±0.5 log units).

[4] = female, Sprague-Dawley, 75 mg/kg, Formulation 1, S-D (Female)
[5] = female, Sprague-Dawley, 75 mg/kg, Formulation 2, S-D (Female)
[6] = female, Wistar, 15 mg/kg, Formulation 1, Wistar (Female)
[7] = female, Wistar, 15 mg/kg, Formulation 2, Wistar (Female)
[8] = female, Wistar, 75 mg/kg, Formulation 1, Wistar (Female)
[9] = female, Wistar, 75 mg/kg, Formulation 2, Wistar (Female)
[10] = female, Wistar, 150 mg/kg, Formulation 1, Wistar (Female)
[11] = female, Wistar, 150 mg/kg, Formulation 2, Wistar (Female)
[12] = male, Sprague-Dawley, 75 mg/kg, Formulation 1, S-D (Male)
[13] = male, Sprague-Dawley, 75 mg/kg, Formulation 2, S-D (Male)
[14] = male, Wistar, 15 mg/kg, Formulation 1, Wistar (Male)
[15] = male, Wistar, 15 mg/kg, Formulation 2, Wistar (Male)
[16] = male, Wistar, 75 mg/kg, Formulation 1, Wistar (Male)
[17] = male, Wistar, 75 mg/kg, Formulation 2, Wistar (Male)
[18] = male, Wistar, 150 mg/kg, Formulation 1, Wistar (Male)
[19] = male, Wistar, 150 mg/kg, Formulation 2, Wistar (Male)

oral exposure in female rats compared to male rats ([1]; average dose normalized AUC values, both S-D and Wistar): 20-40 times
AUC(0-inf) [1, 4]: 14300 ng·h/mL
AUC(0-t) [1, 4]: 11900 ng·h/mL
Cmax [1, 4]: 2280 ng/mL
Tmax [1, 4]: 0.5 h
half-life [1, 4]: 2.01 h
AUC(0-inf) [1, 5]: 20800 ng·h/mL
AUC(0-t) [1, 5]: 20600 ng·h/mL
Cmax [1, 5]: 2180 ng/mL
Tmax [1, 5]: 0.83 h
half-life [1, 5]: 3.58 h
AUC(0-inf) [1, 6]: 6650 ng·h/mL
AUC(0-t) [1, 6]: 4660 ng·h/mL
Cmax [1, 6]: 1140 ng/mL
Tmax [1, 6]: 0.83 h
half-life [1, 6]: 3.1 h
AUC(0-inf) [1, 7]: 5810 ng·h/mL
AUC(0-t) [1, 7]: 5210 ng·h/mL
Cmax [1, 7]: 592 ng/mL
Tmax [1, 7]: 3.33 h
half-life [1, 7]: 6.08 h
AUC(0-inf) [1, 8]: 11100 ng·h/mL
AUC(0-t) [1, 8]: 11100 ng·h/mL
Cmax [1, 8]: 2550 ng/mL
Tmax [1, 8]: 0.58 h
half-life [1, 8]: 3.13 h
AUC(0-inf) [1, 9]: 11300 ng·h/mL
AUC(0-t) [1, 9]: 10700 ng·h/mL
Cmax [1, 9]: 2200 ng/mL
Tmax [1, 9]: 0.75 h
half-life [1, 9]: 3.12 h
AUC(0-inf) [1, 10]: 9060 ng·h/mL
AUC(0-t) [1, 10]: 8710 ng·h/mL
Cmax [1, 10]: 1850 ng/mL
Tmax [1, 10]: 0.33 h
half-life [1, 10]: 5.42 h
AUC(0-inf) [1, 11]: 6440 ng·h/mL
AUC(0-t) [1, 11]: 6430 ng·h/mL
Cmax [1, 11]: 1580 ng/mL
Tmax [1, 11]: 0.33 h
half-life [1, 11]: 2.64 h
AUC(0-inf) [1, 12]: 435 ng·h/mL
AUC(0-t) [1, 12]: 410 ng·h/mL
Cmax [1, 12]: 187 ng/mL
Tmax [1, 12]: 0.5 h
half-life [1, 12]: 1.96 h
AUC(0-inf) [1, 13]: 745 ng·h/mL
AUC(0-t) [1, 13]: 673 ng·h/mL
Cmax [1, 13]: 191 ng/mL
Tmax [1, 13]: 0.67 h
half-life [1, 13]: 3.43 h
AUC(0-inf) [1, 14]: 229 ng·h/mL
AUC(0-t) [1, 14]: 218 ng·h/mL
Cmax [1, 14]: 77.4 ng/mL
Tmax [1, 14]: 0.5 h
half-life [1, 14]: 1.67 h
AUC(0-inf) [1, 15]: 155 ng·h/mL
AUC(0-t) [1, 15]: 175 ng·h/mL
Cmax [1, 15]: 34.7 ng/mL
Tmax [1, 15]: 0.83 h
half-life [1, 15]: 1.74 h
AUC(0-inf) [1, 16]: 282 ng·h/mL
AUC(0-t) [1, 16]: 243 ng·h/mL
Cmax [1, 16]: 155 ng/mL
Tmax [1, 16]: 0.25 h
half-life [1, 16]: 4.28 h
AUC(0-inf) [1, 17]: 261 ng·h/mL
AUC(0-t) [1, 17]: 219 ng·h/mL
Cmax [1, 17]: 94.9 ng/mL
Tmax [1, 17]: 0.5 h
half-life [1, 17]: 3.35 h
AUC(0-inf) [1, 18]: 397 ng·h/mL
AUC(0-t) [1, 18]: 309 ng·h/mL
Cmax [1, 18]: 277 ng/mL
Tmax [1, 18]: 0.25 h
half-life [1, 18]: 1.63 h
AUC(0-inf) [1, 19]: 260 ng·h/mL
AUC(0-t) [1, 19]: 199 ng·h/mL
Cmax [1, 19]: 119 ng/mL
Tmax [1, 19]: 0.25 h
half-life [1, 19]: 2.43 h
increase in exposure, females compared to males ([1]; within both formulations): > 5 fold
pKa1 [2]: 3.95
pKa2 [2]: 1.70
solubility in acidic environments ([2]; acidic environments): greatly enhanced
solubility in aqueous medium ([2]; aqueous medium): slight solubility
logD ([2]; pH = 7.4): 3.47
solubility ([2]; phosphate buffered saline (PBS), aqueous buffer): 33 µM (≈ 17 µg/mL)
IC50 [3]: 1.5 µM
Ki [3]: 9.4 µM
nH [3]: 1.3
inhibition at 10 µM ([3]; CFMQ at 10 μM): 51%
SMILES: Cc1cc(Cl)c(COc2cccc3c(-n4cc(F)cn4)cc(C)nc23)c(Cn2cccc(C#N)c2=O)n1 [CFMQ, 1-((4-Chloro-3-(((4-(4-fluoro-1H-pyrazol-1-yl)-2-methylquinolin-8-yl)oxy)methyl)-6-methylpyridin-2-yl)methyl)-2-oxo-1,2-dihydropyridine-3-carbonitrile]
adverse reactions ([1]; single oral gavage 15-150 mg/kg, rats): No adverse reactions were observed
